Assay [1] deals with cisplatin-induced acute kidney injury model animal. The experiment in a line: Cisplatin-induced acute kidney injury model animal. Format: in vivo. As to conditions: administration group.
The subject of assay [2] is Human proximal renal tubular cells (HK-2). The experiment in a line: Suppression effect on cisplatin-induced cytotoxicity in renal tubular cells (cell counting kit-8). It is filed as cell-based. The conditions noted are these: for suppression of cell death over the tested concentrations: 0.01-100 μM test compound, cisplatin 20 μM for 24 h; for suppression of cell death over the tested concentrations / concentration showing a significant cell death-suppressing effect: FIG. 1; for concentration showing a significant cell death-suppressing effect: 0.5 h pre-treatment with test compound, then cisplatin 20 μM for 24 h. Here is the method:
Human proximal renal tubular cells (HK-2) were seeded into a 96-well plate containing medium at a density of 5×10^3 cells/well. After confirming that the seeded cells had adhered to the plate, each test compound (GSSSG or Na2S4) was added so that the final concentration was 0 μM, 0.01 μM, 0.02 μM, 0.10 μM, 0.39 μM, 1.56 μM, 6.25 μM, 25 μM, or 100 μM, followed by standing at 37° C. for 0.5 hours. Each test compound was dissolved in PBS and then added.
The supernatant in each well was removed, and the cells were washed with PBS. […] Thereafter, cell viability was evaluated using cell counting kit-8 (Dojindo).
The composition of the medium used in Example 1 was as follows: • D-MEM/Ham's F-12 (FUJIFILM Wako Pure Chemical Corporation)+Penicillin-Streptomycin-Amphotericin B (FUJIFILM Wako Pure Chemical Corporation)+GlutaMAX (Thermo Fisher Scientific)+10% FBS.

The subject of assay [3] is cisplatin-induced renal injury. As to conditions: 5.6 mg/kg intraperitoneal; cited from earlier work.
Assay [4] concerns renal dysfunction caused by administration of cisplatin. The conditions noted are these: 300 mg/kg intraperitoneally; cited from earlier work.

This is an account of results in patent publication US20260191823A1, “PROPHYLACTIC OR THERAPEUTIC AGENT FOR ACUTE KIDNEY INJURY INDUCED BY ANTICANCER AGENT” (KYOWA HAKKO BIO CO., LTD., priority 2022, published 2026).

Regarding `N[C@@H](CCC(=O)N[C@@H](CSSSC[C@H](NC(=O)CC[C@H](N)C(=O)O)C(=O)NCC(=O)O)C(=O)NCC(=O)O)C(=O)O` [GSSSG, glutathione trisulfide], in assay [1], the “elevation of blood urea nitrogen (BUN) level” value is listed as “could be suppressed” and the “elevation of serum creatinine (CRE) level” value is reported as “could be suppressed”. Also, in assay [2] (HK-2 cells), the “suppression of cell death over the tested concentrations” value was “tendency to suppress cell death in a concentration-dependent manner” and the “concentration showing a significant cell death-suppressing effect” value turned out to be 0.1 µM. Moreover, the “cell death-suppressing effect relative to Na2S4” value in assay [2] (HK-2 cells, cisplatin 20 μM, compares 0.1 μM with 100 μM) is reported as “about 1000 times”. The “number of viable renal tubular cells” value in assay [2] (test compound 0.1 μM, cisplatin added, fluorescence images, FIG. 2) is on record as “notably higher”.
As for `[Na+].[Na+].[S-]SS[S-]` [Na2S4, reference compound], the “effect on cisplatin-induced renal injury” value in assay [3] is given as “effective”. In addition, in assay [2] (HK-2 cells), the “suppression of cell death over the tested concentrations” value is listed as “tendency to suppress cell death in a concentration-dependent manner” and the “concentration showing a significant cell death-suppressing effect” value was found to be 100 µM.
In the case of `CC(C)OC(=O)CNC(=O)C(CS)NC(=O)CCC(N)C(=O)O.O=S(=O)(O)O` (centres unmarked) [glutathione monoisopropyl ester sulfate], in assay [4], the “cisplatin-induced body weight suppression” value is given as “alleviates” and the “cisplatin-induced elevated blood urea nitrogen” value is on record as “alleviates”.
